# Biological target: Human Factor D (Homo sapiens (Human), UniProt P00746)
# Assay: Human Factor D Assay
# Type: biochemical
# Details: Factor D inhibition, assay of Example 10; read-out: IC5 (Stars)
# In short: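 Serum-purified Factor D (80 nM final) preincubated 5 min at room temperature with compound in 50 mM Tris, 1 M NaCl, pH 7.5. Z-L-Lys-SBz and DTNB added at 100 μM each; A405 followed every 30 s for 30 min. IC50 from nonlinear regression of rates versus concentration.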
# Chain of Human Factor D (P00746 26-253): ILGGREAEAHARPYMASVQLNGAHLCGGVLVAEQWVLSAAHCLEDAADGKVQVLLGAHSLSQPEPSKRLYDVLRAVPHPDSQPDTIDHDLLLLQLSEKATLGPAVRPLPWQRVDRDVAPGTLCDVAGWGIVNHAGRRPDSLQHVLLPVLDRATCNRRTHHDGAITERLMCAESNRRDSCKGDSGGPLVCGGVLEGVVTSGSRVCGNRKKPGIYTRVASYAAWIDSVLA
row,SMILES,IC50
1,"CC(=O)c1nn(CC(=O)N2[C@H](C(=O)Nc3nc(Br)ccc3C)C[C@@]3(COC(F)F)C[C@@H]23)c2cnc(-c3cnc(C)nc3)cc12 [Compound 384, (1R,3S,5S)-2-(2-(3-Acetyl-5-(2-methylpyrimidin-5-yl)-1H-pyrazolo[3,4-c]pyridin-1-yl)acetyl)-N-(6-bromo-3-methylpyridin-2-yl)-5-((difluoromethoxy)methyl)-2-azabicyclo[3.1.0]hexane-3-carboxamide]",< 1 µM
2,"CC(=O)c1nn(CC(=O)N2[C@H](C(=O)NCCN3CCOCC3)C[C@@]3(C)C[C@@H]23)c2c(C)cc(-c3cnc(C)nc3)cc12 [Compound 607, (1R,3S,5R)-2-(2-(3-acetyl-7-methyl-5-(2-methylpyrimidin-5-yl)-1H-indazol-1-yl)acetyl)-5-methyl-N-(2-morpholinoethyl)-2-azabicyclo[3.1.0]hexane-3-carboxamide]",1 to 10 µM
3,"CCCc1cc(Br)nc(NC(=O)[C@@H]2C[C@@]3(C)C[C@H]3N2C(=O)Cn2nc(C(C)=O)c3cc(-c4cnc(C)nc4)ccc32)c1 [Compound 516, (1R,3S,5R)-2-(2-(3-Acetyl-5-(2-methylpyrimidin-5-yl)-1H-indazol-1-yl)acetyl)-N-(6-bromo-4-propylpyridin-2-yl)-5-methyl-2-azabicyclo[3.1.0]hexane-3-carboxamide]",1 to 10 µM
4,"CC(=O)c1nn(CC(=O)N2[C@H](C(=O)Nc3nc(Br)ccc3C)C[C@@]3(Cc4nc(C)no4)C[C@@H]23)c2c(CF)cc(-c3cnc(C)nc3)cc12 [Compound 409, (1R,3S,5R)-2-(2-(3-acetyl-7-(fluoromethyl)-5-(2-methylpyrimidin-5-yl)-1H-indazol-1-yl)acetyl)-N-(6-bromo-3-methylpyridin-2-yl)-5-((3-methyl-1,2,4-oxadiazol-5-yl)methyl)-2-azabicyclo[3.1.0]hexane-3-carboxamide]",< 1 µM
5,"CC(=O)c1nn(CC(=O)N2C[C@H](F)C[C@H]2C(=O)Nc2ccccn2)c2ccc(-c3cnc(C)nc3)cc12 [Compound 440, (2S,4R)-1-(2-(3-acetyl-5-(2-methylpyrimidin-5-yl)-1H-indazol-1-yl)acetyl)-4-fluoro-N-(pyridin-2-yl)pyrrolidine-2-carboxamide]",< 1 µM
6,"CC[C@@]12C[C@@H](C(=O)Nc3nc(Br)ccc3C)N(C(=O)Cn3nc(C(C)=O)c4cc(-c5cnc(C)nc5)ccc43)[C@@H]1C2 [Compound 286, (1R,3S,5R)-2-(2-(3-acetyl-5-(2-methylpyrimidin-5-yl)-1H-indazol-1-yl)acetyl)-N-(6-bromo-3-methylpyridin-2-yl)-5-ethyl-2-azabicyclo[3.1.0]hexane-3-carboxamide]",< 1 µM
7,"CC(=O)c1nn(CC(=O)N2[C@H](C(=O)Nc3nc(Br)ccc3C)C[C@@]3(Cc4nnc(C)o4)C[C@@H]23)c2c(C)cc(-c3cnc(C)nc3)cc12 [Compound 360, (1R,3S,5R)-2-(2-(3-acetyl-7-methyl-5-(2-methylpyrimidin-5-yl)-1H-indazol-1-yl)acetyl)-N-(6-bromo-3-methylpyridin-2-yl)-5-((5-methyl-1,3,4-oxadiazol-2-yl)methyl)-2-azabicyclo[3.1.0]hexane-3-carboxamide]",< 1 µM
8,"Cc1ncc(-c2ccc3c(c2)c(C(=O)NC(C)C)nn3CC(=O)N2[C@H](C(=O)Nc3nc(Br)ccc3C)C[C@@]3(C)C[C@@H]23)cn1 [Compound 562, 1-(2-((1R,3S,5R)-3-((6-bromo-3-methylpyridin-2-yl)carbamoyl)-5-methyl-2-azabicyclo[3.1.0]hexan-2-yl)-2-oxoethyl)-N-isopropyl-5-(2-methylpyrimidin-5-yl)-1H-indazole-3-carboxamide]",1 to 10 µM
9,"CC(=O)c1nn(CC(=O)N2[C@H](C(=O)Nc3nc(Br)c(F)cc3C)C[C@@]3(CN4CC5(CCCC5)C4)C[C@@H]23)c2cnc(-c3cnc(C)nc3)cc12 [Compound 252, (1R,3S,5R)-5-(2-azaspirp[3.4]octan-2-ylmethyl)-2-(2-(3-acetyl-5-(2-methylpyrimidin-5-yl)-1H-pyrazole[3,4-c]pyridin-1-yl)acetyl)-N-(6-bromo-5-fluoro-3-methylpyridin-2-yl)-2-azabicyclo[3.1.0]hexane-3-carboxomide]",< 1 µM

# Same assay, conditions: Table 6; Factor D 80 nM, substrate Z-L-Lys-SBz; read-out: IC50
row,SMILES,IC50
1,"COC(=O)c1cc(-c2cnc(C)nc2)cc2c(C(C)=O)nn(CC(=O)N3C[C@H](F)C[C@H]3C(=O)Nc3cccc(Br)n3)c12 [Compound 25, Methyl 3-acetyl-1-(2-((2S,4R)-2-((6-bromopyridin-2-yl)carbamoyl)-4-fluoropyrrolidin-1-yl)-2-oxoethyl)-5-(2-methylpyrimidin-5-yl)-1H-indazole-7-carboxylate]",< 1 µM
2,"CC(=O)c1nn(CC(=O)N2[C@H](C(=O)NCCOC(F)(F)F)C[C@@]3(C)C[C@@H]23)c2c(C)cc(-c3cnc(C)nc3)cc12 [Compound 81, (1R,3S,5R)-2-(2-(3-Acetyl-7-methyl-5-(2-methylpyrimidin-5-yl)-1H-indazol-1-yl)acetyl)-5-methyl-N-(2-(trifluoromethoxy)ethyl)-2-azabicyclo[3.1.0]hexane-3-carboxamide]",< 1 µM
3,"CC(=O)c1nn(CC(=O)N2[C@H](C(=O)Nc3nc(Br)ccc3C)C[C@@]3(CN4C[C@H]5CCC[C@H]5C4)C[C@@H]23)c2ccc(-c3cnc(C)nc3)cc12 [Compound 119, (1R,3S,5R)-2-(2-(3-Acetyl-5-(2-methylpyrimidin-5-yl)-1H-indazol-1-yl)acetyl)-N-(6-bromo-3-methylpyridin-2-yl)-5-(((3aR,6aS)-hexahydrocyclopenta[c]pyrrol-2(1H)-yl)methyl)-2-azabicyclo[3.1.0]hexane-3-carboxamide]",< 1 µM
4,"Cc1ncc(-c2ccc3c(c(C(N)=O)nn3CC(=O)N3[C@H](C(=O)Nc4nc(Br)ccc4C)C[C@@]4(C)C[C@@H]34)c2F)cn1 [Compound 145, 1-(2-((1R,3S,5R)-3-((6-Bromo-3-methylpyridin-2-yl)carbamoyl)-5-methyl-2-azabicyclo[3.1.0]hexan-2-yl)-2-oxoethyl)-4-fluoro-5-(2-methylpyrimidin-5-yl)-1H-indazole-3-carboxamide]",< 1 µM
5,"CC(=O)c1nn(CC(=O)N2[C@H](C(=O)Nc3nc(Br)ccc3C)C[C@@]3(CN4C[C@H]5CCC[C@H]5C4)C[C@@H]23)c2c(C)cc(-c3cnc(C)nc3)cc12 [Compound 128, (1R,3S,5R)-2-(2-(3-Acetyl-7-methyl-5-(2-methylpyrimidin-5-yl)-1H-indazol-1-yl)acetyl)-N-(6-bromo-3-methylpyridin-2-yl)-5-(((3aR,6aS)-hexahydrocyclopenta[c]pyrrol-2(1H)-yl)methyl)-2-azabicyclo[3.1.0]hexane-3-carboxamide]",< 1 µM

# Same assay, conditions: Table 8; Factor D 80 nM, substrate Z-L-Lys-SBz; read-out: IC50
row,SMILES,IC50
1,"CCCCCCCNC(=O)[C@@H]1C[C@@]2(C)C[C@H]2N1C(=O)Cn1nc(C(C)=O)c2cc(-c3cnc(C)nc3)cc(C)c21 [Compound 527, (1R,3S,5R)-2-(2-(3-acetyl-7-methyl-5-(2-methylpyrimidin-5-yl)-1H-indazol-1-yl)acetyl)-N-heptyl-5-methyl-2-azabicyclo[3.1.0]hexane-3-carboxamide]",< 1 µM
2,"CNCCNC(=O)c1nn(CC(=O)N2[C@H](C(=O)Nc3nc(Br)ccc3C)C[C@@]3(C)C[C@@H]23)c2ccc(-c3cnc(C)nc3)cc12 [Compound 490, 1-(2-((1R,3S,5R)-3-((6-bromo-3-methylpyridin-2-yl)carbamoyl)-5-methyl-2-azabicyclo[3.1.0]hexan-2-yl)-2-oxoethyl)-N-(2-(methylamino)ethyl)-5-(2-methylpyrimidin-5-yl)-1H-indazole-3-carboxamide]",1 to 10 µM

# From patent publication US11084800B2 (Achillion Pharmaceuticals, Inc., priority 2017, dated 2021)
